# From patent US12497614B2, “Compositions and methods for editing beta-globin for treatment of hemaglobinopathies” (Vertex Pharmaceuticals Incorporated, priority 2020, dated 2025)
# Experiments:
# [1] = tested on: HBB gene locus and mRNA transcribed from HBB in CD34+ HSPCs; assay: Editing efficiency in genomic DNA and in HBB mRNA (Example 5); assay type: cell-based, human; conditions: genomic DNA, 48 hours post electroporation; 1 μM or 3 μM
# Description: At 48 hours post electroporation genomic DNA was isolated from the edited cells and HDR to introduce the sickle mutation and INDEL frequencies were evaluated using next gene sequencing and computational analysis. On day 10 of differentiation, incorporation of the SCD mutation and frequency of INDELs present in mRNA transcribed from the HBB gene locus of edited cells was determined using RNA amplicon sequencing.
# [2] = tested on: CD34+ HSPCs; assay: Cell growth and viability (trypan blue) of edited CD34+ HSPCs during differentiation (Example 5); conditions: day 0 to day 18 post-editing; inhibitor 1 or 3 μM, i53 1 μg mRNA; data not shown
# Description: Briefly, frozen CD34+ HSPCs isolated from Plerixafor mobilized peripheral blood, obtained from healthy human donors were thawed. The cells were seeded in CD34 cell media at a cell density of 2×10^5 cells/mL. Cells were cultured at 37° C. under normoxic conditions (i.e., oxygen 20%). Gene-editing was performed following two days of in vitro culture. For editing, 5×10^5 CD34+ HSPCs were electroporated with RNP containing 200 μg/ml Cas9 and 200 μg/ml T107 sgRNA. […] The cells were transduced with AAV.310, 1 hour prior to electroporation, at a dose of 10,000 MOI. The cells were plated in CD34 cell medium containing Compound 296 or Compound 984 immediately following the electroporation, at a concentration of 1 μM or 3 μM for 48 hours. […] Post electroporation cells were resuspended in CD34 cell medium at a density of 2-5×10^5 cells/ml and incubated at 37° C. for 48 hours.
# Following editing, cells were differentiated to erythrocytes. Briefly, cells were plated in fresh CD34 media at a density of 2×10^5 cells/mL, and re-plated at similar density in fresh CD34 media on days 3 and 5 post-editing. On day 7 and 10 post-editing, the cells were incubated in Phase II media at a density of 2.5×10^5 and 1×10^6 cells/mL respectively. On day 12 post-editing, the cells were incubated in Phase III media at a density of 1×10^6 cells/mL. On day 14 cells were plated at a density of 2×10^6 cells/ml in Phase III media and maintained till day 18 at 37° C. Cell growth was measured at various time points between day 0 and day 18 post-editing, and the percentage of viable cells was measured by staining with tryphan blue.
# [3] = Engraftment and persistence of gene-editing after in vivo administration of CD34+ HSPCs edited with T107 RNP, AAV.310 and Compound 984 (Example 14); design: species or system mouse; conditions: T107 RNP+AAV.310 in the presence of Compound 984 (3 μM)
# Description: (§1) The cells were electroporated and immediately plated in medium only or medium containing Compound 984 at 3 μM. […] Genomic DNA was harvested from edited cells and used to evaluate HDR efficiency by […] as described in Example 1.
# (§2) Following two days of in vitro culture, HSPCs were administered by intravenous injection to NBSGW mice at a dose of 0.5×10^6 cells per mouse. Recipient mice were treated with sublethal irradiation (100 cGy) at 1 day prior to administration of HSPCs. […] In total three independent replicates of the study were performed.
# (§3) Bone marrow and peripheral blood was extracted at 16 weeks following HSPC administration and evaluated for presence of human hematopoietic cells using flow cytometry as described in Example 2. The percent chimerism (percentage of human CD45+ cells relative total cells expressing human CD45 or mouse CD45) in mouse bone marrow and peripheral blood is respectively shown in FIGS. 14A-14B.
# (§4) Additionally, the lineage of human CD45+ cells was determined using markers for human B cells, T cells, myeloid cells, and HSPCs as described in Example 2.
# (§5) The long term persistence of edits in the HBB gene present in HSPCs administered to each mouse cohorts was evaluated in genomic DNA extracted from bone marrow collected at 16 weeks. The frequency of donor template-encoded gene-edits in the HBB gene incorporated by HDR was quantified by NGS and is shown in FIG. 14D. […]
# [4] = tested on: NBSGW mice; assay: as above; design: species or system mouse; conditions: 16 weeks; T107 RNP+AAV.310 in the presence of Compound 984
# Description: as §1, §2, §3, §4, §5
# [5] = tested on: human HBB gene locus in CD34+ HSPCs; assay: In vitro editing of HBB in CD34+ HSPCs with RNP and AAV donor template; HDR and INDELs by NGS (Example 1); assay type: cell-based; conditions: T107 RNP+AAV.320 with i53 (1 μg mRNA)
# Description: Gene-editing of HBB was evaluated in CD34+ HSPCs. […] HSPCs were maintained in culture media containing IL-3 and were incubated at 37° C. under atmospheric conditions containing 5% carbon dioxide and 4% oxygen. […] To perform gene-editing, the cells were electroporated with RNP. Specifically, 1×10^6 cells were electroporated using the Maxcyte HSC-3 program with RNP containing 20 μg SpCas9 and 20 μg sgRNA (T107 or R02). AAV donor template was administered to cells prior to electroporation. Specifically, the cells were incubated with AAV (AAV.320 or AAV.323 respectively) at a dose of 10,000 MOI for one hour prior to electroporation.
# Given efficiency of HDR repair is poor due to competition with other repair pathways (e.g., the NHEJ pathway), particularly in non-dividing or slowly dividing cells such as HSPCs, editing was also evaluated following treatment with molecules that inhibit targets in the NHEJ pathway, including 53BP1 and DNA-PK. […]
# To evaluate HDR editing efficiency, genomic DNA was harvested from treated cells, and the frequency of the HBB allele encoding the expected gene edit (i.e., GAA encoding glutamate at position 6 downstream the HBB start codon (“E6”) for cells transduced with AAV.323 and silent mutations for cells transduced with AAV.320) was evaluated using a PCR amplification-based assay followed by next-generating sequencing (NGS). […]
Molecule,frequency of INDELs at the T107 cut site compared to cells edited with T107 RNP+AAV.310 only [1],level of HDR repair compared to cells edited with T107 RNP+AAV.310 only [1],cell growth over time or percent viability vs T107 RNP+AAV.310 edited cells [2],frequency of gene-edits (HDR) in CD34+ HSPCs prior to transplantation [3],frequency of gene-edits in mouse bone marrow vs CD34+ HSPCs prior to transplantation [4],HDR efficiency (donor-template-encoded gene-edit in HBB) [5]
[2H]c1nc(C)nc([2H])c1-c1cc(NC[C@@H](C)c2cccc3c(C(=O)NC)ccnc23)ncn1 [Compound 984],decreased,increased,No difference,approximately 45%,comparable,–
"i53: polypeptide inhibitor of 53BP1 (SEQ ID NO: 11), introduced as an mRNA-encoded protein (ORF SEQ ID NO: 10)",–,–,No difference,–,–,approximately 25%
